Data on 7 compounds can be found in paper PMC9241644, “Evaluation of Novel Quorum Sensing Inhibitors Targeting Auto-Inducer 2 (AI-2) for the Control of Avian Pathogenic Escherichia coli Infections in Chickens” (Microbiology Spectrum, 2022).

Data set [1] relates to Rif^R APEC O78. In words: Efficacy of QSIs in APEC-infected chickens (oral gavage pilot). In kind it is in vivo, Escherichia coli. As to conditions: for Average lesion severity, Lung / Average lesion severity, Liver / Average lesion severity, Airsac / Average lesion severity, Heart / Mortality rate % (Nr.) / Average APEC load, Liver / Average APEC load, Heart / Average APEC load, Kidney / Average APEC load, Lung: Table S1, oral gavage pilot; for Average lesion severity, Lung / Average lesion severity, Liver / Average lesion severity, Airsac / Average lesion severity, Heart: lesion score; for Average lesion severity, Lung: PC 1.25; for Average lesion severity, Liver: PC 1.75; for Average lesion severity, Airsac: PC 2.00; for Average lesion severity, Heart: PC 2.25; for Mortality rate % (Nr.): n = 6/group, 8 DPI, PC 66.6 (4/6); for Average APEC load, Liver: PC 5.95; for Average APEC load, Heart: PC 5.98; for Average APEC load, Kidney: PC 6.81; for Average APEC load, Lung: PC 6.83; for reduction in mortality compared with the PC group / average APEC load reduction in the internal organs (liver, heart, lung, kidney) compared with PC: chickens, QSI oral gavage once daily 5 days, s/c APEC O78 1 × 10^7 CFU/bird; for reduction in mortality compared with the PC group: PC mortality normalized to 100%; for average APEC load reduction in the internal organs (liver, heart, lung, kidney) compared with PC: range over organs. As to the method:
The chicken experiment was carried out using 1-day-old broiler chickens (Mayer Hatchery, OH, USA). Feed and water were given ad libitum. Chickens (n = 6/group) were administered with the QSIs (QSI-1, QSI-2, QSI-5 − 8, QSI-10, ChemBridge, San Diego, CA); previously designated as C1, C2, C5, C6, C7, C8, C10 ([17]) using oral gavage. These compounds were selected based on their high efficacy in in vitro studies and the doses correspond to 30X of the initial in vitro screening concentration ([17]). The QSIs were suspended in dimethyl sulfoxide (DMSO; used as a vehicle) and administered once daily for 5 successive days (starting from day 4 to day 8). The first dose was administered 1 day before the challenge, followed by the second dose on the challenge day (2 h before challenge), followed by three additional doses on subsequent days. Feeders were removed 1 h prior to the treatment and replaced 1 h after the treatment. Chickens were challenged subcutaneously (s/c) on day 5 with Rif^R APEC O78 (1 × 10^7 CFU/bird) in PBS using syringe (27 gauge, 0.5 in.). The challenge dose, which […], was chosen based on preliminary experiments conducted with different infection routes (subcutaneous s/c, intra-tracheal and intra-airsacs) and different doses (10^6, 10^7, and 10^8 CFU/chicken). […] Therefore, we selected this challenge dose and route for evaluation of QSIs in chickens ([34]). The positive (PC; infected with APEC O78 and DMSO treated) and negative (NC; non-infected and non-treated) control groups were included.
(§1) Chickens were monitored for clinical signs for 8 DPI. Any chickens moribund during this period were humanely euthanized and necropsied to determine bacterial load in the internal organs (liver, heart, lung, and kidney). Internal organs were aseptically collected, weighed and suspended in 1× PBS, the amount of PBS added was adjusted based on the organ size to make a suspension, the organ size and amount of PBS added were included in the final calculation of the CFU. The samples were homogenized, serially diluted 10-fold, plated on MacConkey agar (Remel, CA, USA) containing 50 μg/mL rifampicin, and incubated at 37°C for 24 h to determine the CFU/g. Pathological lesions severity in internal organs (pericarditis, perihepatitis, airsacculitis, and lung congestion) was scored as described previously ([21], [59]). At 8 DPI, the remaining chickens were humanely euthanized and necropsied, lesions were scored, and the APEC load was quantified in internal organs as described above.

Data set [2] is described as follows: QSI-5 and SDM residue quantification in muscle, kidney and liver (LC-MS). In kind it is in vivo, chickens. The note with it: in vivo. The protocol: The safety of QSI-5 and SDM was assessed by measuring the level of drug residue in the muscle, kidney, and liver using LC-MS (CCIC, MS&P Facility, OSU) as described before ([34]). As described above, chickens were administered with the optimized dose of QSI-5 (1 mg/L) and the therapeutic dose of SDM (495.323 mg/L) (0.05%) in drinking water daily for 7 days (starting from day 5 to day 11 of age). Tissue samples were collected individually from chickens treated with QSI-5 and SDM (five chickens per group) from experimental set up as described for floor trial at 2 DPLT, 5 DPLT, and […] (slaughter age). All samples were weighed and extracted at a 400 mg/mL ratio of tissue in the extraction solution (50:50 H2O: ACN). Samples were homogenized using a probe sonicator 20 times and centrifuged at 13,000 × g for 30 min. Sixty μL of the supernatant was transferred into glass vials and dried in a SpeedVac for 1.5 h, and then resuspended in 120 μL of 25:25:50 H2O:ACN:MeOH. Standard calibration, LC system, mass spectrometer, and drug target monitoring were performed as described above. Calibration standard curves for measuring the accumulation of QSI-5 and SDM in the kidney, liver, and muscle are shown in Fig. S6A and S6B.

Data set [3] has as its system Rif^R APEC O78. Description: Comparative efficacy of QSI-5 and SDM in field simulated conditions (built-up floor litter). It is filed as in vivo, Escherichia coli.
Text: as §1
To compare the efficacy of QSI-5 with an antibiotic SDM currently used in the field, chickens (n = 70) were raised on built-up floor litter in a field-simulated conditions. One-day-old broiler chickens (Case Farms Ohio Hatchery, OH, USA) were used for conducting the experiment. The optimized dose of QSI-5 (1 mg/L) and the therapeutic dose of SDM (495.323 mg/L) (0.05%) were given in drinking water daily for 7 days (starting from day 5 to day 11 of age). The volume of drinking water needed daily was determined as described above. On day 6, the chickens were infected s/c with Rif^r APEC O78 (5 × 10^6 CFU/chicken, s/c). PC (0.05% DMSO treated and infected) and NC (non-infected and non-treated) control groups were included. The mortality was recorded daily until the end of the experiment (42 days of age: slaughter age). At 8 DPI, half of the chickens from each group were necropsied, lesions were scored, and the APEC load was quantified in the internal organs as described above. The other half of the chickens were raised until day 42 to determine the impact of treatment on the body weight gain and feed intake. To calculate the FCR, body weight was measured once every week and feed intake was recorded every day. On day 42, the remaining chickens were euthanized, body weight was measured and 10 chickens from each group were randomly selected and necropsied, lesions and APEC load were assessed in the internal organs.

Molecules are shown by their SMILES.

Regarding `Cc1ccccc1N1CCN(C2CCCN(C(=O)c3ccc(F)c(Cl)c3)C2)CC1` (stereo not drawn) [QSI-2], in data set [1], the “Average lesion severity, Lung” value was 0.17; the “Average lesion severity, Liver” value worked out at 1.00; the “Average lesion severity, Airsac” value is 0.92; the “Average lesion severity, Heart” value is 1.67. For the same compound, in data set [1], the “Mortality rate % (Nr.)” value is 33.3%; the “Average APEC load, Liver” value is 4.20 Log CFU/g of tissue; the “Average APEC load, Heart” value was 4.87 Log CFU/g of tissue; the “Average APEC load, Kidney” value is recorded as 5.07 Log CFU/g of tissue. Further, in data set [1], the “Average APEC load, Lung” value is 5.15 Log CFU/g of tissue and the “reduction in mortality compared with the PC group” value (from here on “reduction in mortality”) was 50%.

Take `COc1cc(NS(=O)(=O)c2ccc(N)cc2)nc(OC)n1` [SDM, sulfadimethoxine]: in data set [2] (broiler, chicken, 35 DPLT), the “Drug accumulation, Liver (ppm± SD)” value is 0.0 ± 0.0 ppm and the “Drug accumulation, Muscle (ppm± SD)” value is on record as 0.0 ± 0.0 ppm. Also, the “Drug accumulation, Kidney (ppm± SD)” value in data set [2] (commercial broiler, chicken, 35 DPLT) is given as 0.0 ± 0.0 ppm. In addition, the “residue in any tissues” value in data set [2] is on record as “no detectable residues”. The “Average lesion severity, Lung” value in data set [3] (Table S3, PC 1.85) is reported as 1.17. Further, the “Average lesion severity, Liver” value in data set [3] (Table S3, PC 2.52) is on record as 2.03. Besides, the “Average lesion severity, Airsac” value in data set [3] (Table S3, PC 3.36) is given as 2.50. For the same compound, the “Average lesion severity, Heart” value in data set [3] (Table S3, PC 3.58) was 2.83. The “Average APEC load, Liver” value in data set [3] (Table S3, PC 7.24) is reported as 5.05 Log CFU/ g of tissue. Moreover, the “Average APEC load, Lung” value in data set [3] (Table S3, PC 7.68) was 6.17 Log CFU/ g of tissue. In addition, in data set [3] (Table S3, PC 7.73), the “Average APEC load, Kidney” value was 5.33 Log CFU/ g of tissue. In addition, the “Average APEC load, Heart” value in data set [3] (Table S3, PC 7.92) is reported as 5.69 Log CFU/ g of tissue. For the same compound, the “Mortality rate % (Nr.)” value in data set [3] (Table S3, until 42 days of age, QSI-5 (8/63), SDM (19/65), PC 45.6 (31/68)) is reported as 29.2%. For the same compound, the “reduction in mortality” value in data set [3] (built-up floor litter, QSI-5 1 mg/L, SDM 495.3 mg/L (0.05%) in drinking water 7 days, s/c APEC O78 5 × 10^6 CFU/chicken) is listed as 35.9%.

Turning to `O=[N+]([O-])c1cccc(S(=O)(=O)Nc2ccc(Br)cc2)c1` [QSI-6], in data set [1], the “Average lesion severity, Lung” value is listed as 0.50; the “Average lesion severity, Liver” value worked out at 0.83; the “Average lesion severity, Airsac” value stood at 1.17; the “Average lesion severity, Heart” value is reported as 1.50. Moreover, in data set [1], the “Mortality rate % (Nr.)” value turned out to be 66.6%; the “Average APEC load, Liver” value was 4.62 Log CFU/g of tissue; the “Average APEC load, Heart” value was 4.87 Log CFU/g of tissue; the “Average APEC load, Kidney” value is 5.35 Log CFU/g of tissue. For the same compound, in data set [1], the “Average APEC load, Lung” value is listed as 5.17 Log CFU/g of tissue and the “reduction in mortality” value was “did not reduce mortality”.

As to `O=C(CCN1CCN(c2ccccc2F)CC1)Nc1ccc(Br)cc1` [QSI-7], in data set [1], the “Average lesion severity, Lung” value came out at 0.17; the “Average lesion severity, Liver” value came to 1.33; the “Average lesion severity, Airsac” value stood at 1.00; the “Average lesion severity, Heart” value was determined as 1.33. In data set [1], the “Mortality rate % (Nr.)” value is 66.6%; the “Average APEC load, Liver” value was 5.95 Log CFU/g of tissue; the “Average APEC load, Heart” value is on record as 6.13 Log CFU/g of tissue; the “Average APEC load, Kidney” value is 6.13 Log CFU/g of tissue. Besides, in data set [1], the “Average APEC load, Lung” value was 6.10 Log CFU/g of tissue; the “reduction in mortality” value is given as “did not reduce mortality”; the “average APEC load reduction in the internal organs (liver, heart, lung, kidney) compared with PC” value is on record as “did not reduce the APEC load”.

In the case of `OCCC1CN(C2CCN(c3ccccc3)CC2)CCN1CCCc1ccccc1` (stereo not drawn) [QSI-10], in data set [1], the “Average lesion severity, Lung” value came to 0.00; the “Average lesion severity, Liver” value was found to be 0.00; the “Average lesion severity, Airsac” value is 0.17; the “Average lesion severity, Heart” value turned out to be 0.33. For the same compound, in data set [1], the “Mortality rate % (Nr.)” value is reported as 16.6%; the “Average APEC load, Liver” value is 2.50 Log CFU/g of tissue; the “Average APEC load, Heart” value was 2.50 Log CFU/g of tissue; the “Average APEC load, Kidney” value is reported as 2.47 Log CFU/g of tissue. Moreover, the “Average APEC load, Lung” value in data set [1] is 3.08 Log CFU/g of tissue.

Turning to `CCc1ccccc1NC1NC(c2c(C)nc3ccccn23)=CS1` (stereo not drawn) [QSI-8], in data set [1], the “Average lesion severity, Lung” value was 0.17; the “Average lesion severity, Liver” value is recorded as 0.50; the “Average lesion severity, Airsac” value is given as 0.50; the “Average lesion severity, Heart” value is reported as 0.50. In addition, in data set [1], the “Mortality rate % (Nr.)” value came out at 33.3%; the “Average APEC load, Liver” value is reported as 3.48 Log CFU/g of tissue; the “Average APEC load, Heart” value was 3.60 Log CFU/g of tissue; the “Average APEC load, Kidney” value is listed as 3.65 Log CFU/g of tissue. In addition, in data set [1], the “Average APEC load, Lung” value was 4.60 Log CFU/g of tissue and the “reduction in mortality” value is on record as 50%.

As to `COCCN1CCC(CN(Cc2cccnc2)Cc2ccccc2Cl)CC1` [QSI-1], in data set [1], the “Average lesion severity, Lung” value is recorded as 0.50; the “Average lesion severity, Liver” value came to 2.17; the “Average lesion severity, Airsac” value turned out to be 1.83; the “Average lesion severity, Heart” value is listed as 3.00. Besides, in data set [1], the “Mortality rate % (Nr.)” value came out at 50%; the “Average APEC load, Liver” value was 5.30 Log CFU/g of tissue; the “Average APEC load, Heart” value is on record as 5.63 Log CFU/g of tissue; the “Average APEC load, Kidney” value is 6.28 Log CFU/g of tissue. Besides, in data set [1], the “Average APEC load, Lung” value was 5.92 Log CFU/g of tissue; the “reduction in mortality” value is reported as 25%; the “average APEC load reduction in the internal organs (liver, heart, lung, kidney) compared with PC” value is on record as “did not reduce the APEC load”.
